Assay results: EP4781984A1 (Beyang Therapeutics Co., Ltd., priority 2023, dated 2025)
Values after ≈ are worked out from the molar mass of the structure shown.

How the values were obtained:
[1] = Thermodynamic solubility test; format: physicochemical; settings: buffer solution, aqueous buffer, thermodynamic from solid; thermodynamic solubility, room temperature, 8 hours shaking; buffers pH 2.0, 6.5, 7.4 used, pH of the tabulated value not given
Method: Solubility Test of Compounds
Table 9. Reagents and Instruments
After sonication for 10 minutes, they were fixed on a shaker and shaken at room temperature for 8 hours. After shaking, they were sonicated for 10 minutes and centrifuged at 13000 rpm for 15 minutes. 0.1 mL of supernatant was aspirated into a new tube, rinsed with 5 mL of buffer by shaking, and the liquid was discarded. 0.5 mL of supernatant was transferred again to a new tube, centrifuged at 13000 rpm for 15 minutes, and the supernatant was taken (diluted with water if necessary) for LC-MS injection analysis. Sample concentrations were quantified using a 3-5 point calibration curve.

melanin = assay: Compound binding to melanin; format: in vitro ADME; settings: cuttlefish (Sepia officinalis), melanin suspension (1 mg/mL), percentage of free drug (not bound to melanin), 2 µM compound, melanin 1 mg/mL in PBS pH 7.4, 37°C
Source text: Detection of Compound Binding to Melanin
Pigmented ocular tissues contain melanin within intracellular melanosomes. Drugs bind to melanin to varying degrees, from no binding to extensive binding. Therefore, melanin binding is an important characteristic affecting ocular drug delivery and biodistribution. The ability of compounds to bind to melanin must be considered in ocular drug development.
Melanin derived from cuttlefish (Sepia officinalis) melanin was purchased from Sigma Aldrich (St Louis, MO).
First, prepare a 1 mg/mL melanin suspension in PBS (pH 7.4). As a matrix washing step, suspended particles were centrifuged at 3000 rpm for 5 minutes. The resulting pellet was resuspended in fresh PBS buffer, heated to 37°C with continuous shaking, and incubated for 1 hour. Accurately pipette 2 microliters of test compound stock solution (0.1 mM) into 98 microliters of melanin suspension (1 mg/mL), resulting in a final incubation concentration of 2 µM. Similarly, accurately pipette 2 microliters of stock solution (0.1 mM) into 98 microliters of PBS buffer (containing 0.1% BSA) as a blank control sample. Samples were incubated at 37°C for 2 hours on a shaker (80-90 rpm). Then centrifuged at room temperature. 50 microliters of supernatant was aspirated and added to 50 microliters of precipitation agent (containing internal standard). All samples above were subjected to protein precipitation, centrifuged, the supernatant was taken, diluted with water (if necessary), and then injected for analysis. Simultaneously, high-binding compounds Sunitinib and chloroquine, and the low-binding compound celecoxib were measured as positive controls. An LC-MS/MS analytical method for determining compound concentration was established. The ratio of analyte/internal standard peak areas (Aanalyte/AIS) measured in the samples, calibrated by the dilution factor, was used as the surrogate concentration for data processing. The binding rate of the compound to melanin (Fb) is calculated by the formula: Fb = 100−(Ctest)/(Ccontrol) × 100% [formula]
Ctest is the drug concentration of the compound in the melanin incubation sample or the peak area ratio of the test compound to the internal standard. Ccontrol is the drug concentration of the compound in the blank control sample or the peak area ratio of the test compound to the internal standard. Percentage of free drug (Fu%) = 100 - Fb The binding rates of the compounds of the present invention to melanin are shown in the table below: Table 11. Binding Rate of Compounds to Melanin

EGFR = target: T1, EGFR (Homo sapiens, UniProt P00533); assay: Kinase inhibitory activity, Mobility Shift Assay (EGFR); format: biochemical
T1 construct: purchased Carna 08-115
Method: Assay for Inhibitory Activity of Compounds Against VEGFR and EGFR Kinases
This assay directly monitors the inhibitory activity of compounds on kinase phosphorylation by measuring non-phosphorylated and phosphorylated substrates in the kinase reaction using Mobility Shift Assays/IMAP™ analysis. Table 2. Reagents and Instruments
Kinase and DTT were added to 1X kinase buffer to form a 2.5X kinase solution; 10 µL of the 2.5X kinase solution was transferred to a 384-well reaction plate, and 1X kinase buffer was added to the negative control wells. The plate was incubated at room temperature for 10 minutes; FAM-labeled peptide, MgCl2, ATP, and other reagents were added to 1X kinase buffer to form a 2.5X substrate solution; 10 µL of the above 2.5X substrate solution was transferred to the 384-well reaction plate; the plate was incubated at 28°C for varying times, and then 25 µL of stop solution was added to the 384-well reaction plate to terminate the reaction. Conversion rate data were read on a CaliperEZ Reader II. […] IC50 values were fitted using XLFit excel add-in version 5.4.0.8. Y = Bottom + (Top−Bottom)/(1 + […]) [formula]
X is the log value of compound concentration, Y is the inhibition rate (% inhibition).

T1 sequence (P00533 25-1210): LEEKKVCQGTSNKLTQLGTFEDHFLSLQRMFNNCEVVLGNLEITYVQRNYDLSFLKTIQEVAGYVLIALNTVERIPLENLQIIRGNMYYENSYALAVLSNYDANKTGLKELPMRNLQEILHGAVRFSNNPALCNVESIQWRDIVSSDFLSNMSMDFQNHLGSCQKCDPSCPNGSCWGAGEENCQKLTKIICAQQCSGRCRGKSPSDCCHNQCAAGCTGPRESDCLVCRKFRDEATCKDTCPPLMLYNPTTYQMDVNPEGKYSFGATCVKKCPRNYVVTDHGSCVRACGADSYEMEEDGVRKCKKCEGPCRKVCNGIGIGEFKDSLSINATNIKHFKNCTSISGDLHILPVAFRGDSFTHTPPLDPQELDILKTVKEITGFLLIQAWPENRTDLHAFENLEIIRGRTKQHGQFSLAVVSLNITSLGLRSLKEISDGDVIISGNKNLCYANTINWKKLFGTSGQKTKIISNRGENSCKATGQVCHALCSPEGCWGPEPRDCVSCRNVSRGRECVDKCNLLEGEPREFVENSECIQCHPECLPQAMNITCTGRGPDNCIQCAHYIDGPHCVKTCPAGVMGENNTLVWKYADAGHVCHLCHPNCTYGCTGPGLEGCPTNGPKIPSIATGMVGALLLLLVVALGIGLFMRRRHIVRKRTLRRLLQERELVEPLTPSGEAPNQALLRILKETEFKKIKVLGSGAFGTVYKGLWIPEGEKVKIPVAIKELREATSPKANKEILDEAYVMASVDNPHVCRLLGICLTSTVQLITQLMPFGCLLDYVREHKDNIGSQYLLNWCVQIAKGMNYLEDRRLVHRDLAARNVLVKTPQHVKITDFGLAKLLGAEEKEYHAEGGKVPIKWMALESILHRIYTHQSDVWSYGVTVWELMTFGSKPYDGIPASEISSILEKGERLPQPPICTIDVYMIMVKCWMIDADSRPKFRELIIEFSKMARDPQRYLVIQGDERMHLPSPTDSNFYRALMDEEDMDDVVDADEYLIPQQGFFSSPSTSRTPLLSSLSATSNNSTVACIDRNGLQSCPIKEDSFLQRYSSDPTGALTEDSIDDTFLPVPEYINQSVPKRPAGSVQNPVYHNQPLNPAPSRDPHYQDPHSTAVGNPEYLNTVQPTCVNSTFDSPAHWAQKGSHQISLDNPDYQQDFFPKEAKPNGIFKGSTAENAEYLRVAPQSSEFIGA

| solubility at 8 h [1] [µg/mL] | fraction unbound at 2 h, 2 µM (melanin) | IC50 (EGFR) [µM] | SMILES |
| --- | --- | --- | --- |
| 31.9 (≈ 67.6 µM) | 0.01 to 0.05 | – | CCN(CC)Cc1ccc(/C=C/c2n[nH]c3cc(Sc4ccccc4C(=O)NC)ccc23)nc1 [Compound I-90] |
| – | – | > 60 | O=C(NC1CC1)c1cccc(F)c1Sc1ccc2c(/C=C/c3cccc(CCN4CCCC4)n3)n[nH]c2c1 [Compound I-128] |
| – | 0.01 to 0.05 | – | CN(C)CCOc1ccc(/C=C/c2n[nH]c3cc(Sc4ccccc4C(=O)NC4CC4)ccc23)nc1 [Compound I-51, N-cyclopropyl-2-({3-[(E)-2-{5-[2-(dimethylamino)ethoxy]pyridin-2-yl}ethenyl]-1H-indazol-6-yl}sulfanyl)benzamide] |
| 1870 (≈ 3560 µM) | 0.01 to 0.05 | – | O=C(NC1CC1)c1ccccc1Sc1ccc2c(/C=C/c3ccc(OCCN4CCCC4)cn3)n[nH]c2c1 [Compound I-8, N-cyclopropyl-2-((3-((E)-2-(5-(2-(pyrrolidin-1-yl)ethoxy)pyridin-2-yl)ethenyl)-1H-indazol-6-yl)thio)benzamide] |
| – | 0.01 to 0.05 | – | CCN(CC)Cc1ccc(/C=C/c2n[nH]c3cc(Sc4ccc(F)cc4C(=O)NC)ccc23)nc1 [Compound I-93] |
| – | > 0.05 | – | O=C(NC1CC1)c1ccccc1Sc1ccc2c(/C=C/c3ccc(CN4CCCC4)cn3)n[nH]c2c1 [Compound I-41] |
| 278 (≈ 556 µM) | 0.01 to 0.05 | – | CNC(=O)c1ccccc1Sc1ccc2c(/C=C/c3cccc(OCCN4CCCC4)n3)n[nH]c2c1 [Compound I-17] |
| 363 (≈ 768 µM) | 0.01 to 0.05 | – | CNC(=O)c1ccccc1Sc1ccc2c(/C=C/c3cnn(CCN4CCCC4)c3)n[nH]c2c1 [Compound I-9] |
| – | > 0.05 | – | CCN(CC)CCOc1ccc(/C=C/c2n[nH]c3cc(Sc4ccccc4C(=O)NC4CC4)ccc23)nc1 [Compound I-52] |
| 27.2 (≈ 54.7 µM) | ≤ 0.01 | – | CNC(=O)c1ccccc1Sc1ccc2c(C#Cc3ccc(OCCN4CCCC4)cn3)n[nH]c2c1 [Compound I-16] |
| 128 (≈ 256 µM) | 0.01 to 0.05 | – | CNC(=O)c1ccccc1Sc1ccc2c(/C=C/c3cc(OCCN4CCCC4)ccn3)n[nH]c2c1 [Compound I-20] |
| – | 0.01 to 0.05 | – | O=C(NC1CC1)c1ccccc1Sc1ccc2c(/C=C/c3cc(CN4CCCC4)ccn3)n[nH]c2c1 [Compound I-115] |
| 209 (≈ 387 µM) | > 0.05 | – | CCN(CC)Cc1ccc(/C=C/c2n[nH]c3cc(Sc4ccccc4C(=O)NCC(F)(F)F)ccc23)nc1 [Compound I-100] |
| – | 0.01 to 0.05 | – | O=C(NC1CC1)c1ccccc1Sc1ccc2c(/C=C/c3cnn(CCN4CCCC4)c3)n[nH]c2c1 [Compound I-61] |
| – | 0.01 to 0.05 | – | CNC(=O)c1ccccc1Sc1ccc2c(/C=C/c3ccc(CCN4CCCC4)cn3)n[nH]c2c1 [Compound I-107] |
| 71.6 (≈ 140 µM) | 0.01 to 0.05 | – | O=C(NC1CC1)c1ccccc1Sc1ccc2c(/C=C/c3cnn(CCCN4CCCC4)c3)n[nH]c2c1 [Compound I-43] |
| 31.8 (≈ 65.2 µM) | 0.01 to 0.05 | – | CNC(=O)c1ccc(F)cc1Sc1ccc2c(/C=C/c3ccc(CN4CCCC4)cn3)n[nH]c2c1 [Compound I-94] |

| solubility at 8 h [1] [µg/mL] | fraction unbound at 2 h, 2 µM (melanin) | IC50 (EGFR) [µM] | SMILES |
| --- | --- | --- | --- |
| 78.8 (≈ 158 µM) | 0.01 to 0.05 | – | CNC(=O)c1ccccc1Sc1ccc2c(/C=C/c3cccc(OCCN4CCCC4)c3)n[nH]c2c1 [Compound I-15] |
| 57.7 (≈ 111 µM) | > 0.05 | – | CNC(=O)c1cccc(F)c1Sc1ccc2c(/C=C/c3ccc(OCCN4CCCC4)cn3)n[nH]c2c1 [Compound I-33, 3-fluoro-N-methyl-2-({3-[(E)-2-{5-[2-(pyrrolidin-1-yl)ethoxy]pyridin-2-yl}ethenyl]-1H-indazol-6-yl}sulfanyl)benzamide] |
| 866 (≈ 1780 µM) | 0.01 to 0.05 | – | CNC(=O)c1ccccc1Sc1ccc2c(/C=C/c3ccn(CCCN4CCCC4)n3)n[nH]c2c1 [Compound I-11] |
| 1770 (≈ 3520 µM) | > 0.05 | – | CNC(=O)c1cccc(F)c1Sc1ccc2c(/C=C/c3cnn(CCCN4CCCC4)c3)n[nH]c2c1 [Compound I-76] |
| 26.6 (≈ 51.4 µM) | 0.01 to 0.05 | – | CNC(=O)c1ccc(F)cc1Sc1ccc2c(/C=C/c3ccc(OCCN4CCCC4)cn3)n[nH]c2c1 [Compound I-35, 4-fluoro-N-methyl-2-({3-[(E)-2-{5-[2-(pyrrolidin-1-yl)ethoxy]pyridin-2-yl}ethenyl]-1H-indazol-6-yl}sulfanyl)benzamide] |
| – | 0.01 to 0.05 | – | CCNC(=O)c1ccccc1Sc1ccc2c(/C=C/c3ccc(CN4CCCC4)cn3)n[nH]c2c1 [Compound I-73, N-ethyl-2-({3-[(E)-2-{5-[(pyrrolidin-1-yl)methyl]pyridin-2-yl}ethenyl]-1H-indazol-6-yl}thio)benzamide] |
| – | > 0.05 | – | O=C(NC1CC1)c1ccccc1Sc1ccc2c(/C=C/c3ccc(OCCN4CCCCC4)cn3)n[nH]c2c1 [Compound I-53] |
| 199 (≈ 387 µM) | 0.01 to 0.05 | – | O=C(NC1CC1)c1cc(F)ccc1Sc1ccc2c(/C=C/c3ccc(CN4CCCC4)cn3)n[nH]c2c1 [Compound I-80] |
| – | 0.01 to 0.05 | – | CNC(=O)c1ccccc1Sc1ccc2c(/C=C/c3ccnc(OCCN4CCCC4)c3)n[nH]c2c1 [Compound I-18] |
| 456 (≈ 905 µM) | > 0.05 | – | CCN(CC)Cc1ccc(/C=C/c2n[nH]c3cc(Sc4ccccc4C(=O)NCCF)ccc23)nc1 [Compound I-98, 2-({3-[(E)-2-{5-[(diethylamino)methyl]pyridin-2-yl}ethenyl]-1H-indazol-6-yl}sulfanyl)-N-(2-fluoroethyl)benzamide] |
| 79.6 (≈ 154 µM) | > 0.05 | – | CCN(CC)Cc1ccc(/C=C/c2n[nH]c3cc(Sc4cc(F)ccc4C(=O)NC4CC4)ccc23)nc1 [Compound I-83, N-cyclopropyl-4-fluoro-2-({3-[(E)-2-{5-[(diethylamino)methyl]pyridin-2-yl}ethenyl]-1H-indazol-6-yl}thio)benzamide] |
| 1650 (≈ 3370 µM) | 0.01 to 0.05 | – | CCN(CC)Cc1ccc(/C=C/c2n[nH]c3cc(Sc4c(F)cccc4C(=O)NC)ccc23)nc1 [Compound I-91] |
| 0.9 (≈ 2.32 µM) | 0.01 to 0.05 | – | CNC(=O)c1ccccc1Sc1cnc2c(/C=C/c3ccccn3)n[nH]c2c1 [Compound I-21, N-methyl-2-({3-[(E)-2-(pyridin-2-yl)ethenyl]-1H-pyrazolo[4,3-b]pyridin-6-yl}sulfanyl)benzamide] |
| 19.3 (≈ 37.3 µM) | > 0.05 | – | CNC(=O)c1cc(F)ccc1Sc1ccc2c(/C=C/c3ccc(OCCN4CCCC4)cn3)n[nH]c2c1 [Compound I-34, 5-fluoro-N-methyl-2-({3-[(E)-2-{5-[2-(pyrrolidin-1-yl)ethoxy]pyridin-2-yl}ethenyl]-1H-indazol-6-yl}sulfanyl)benzamide] |
| 27.6 (≈ 55.5 µM) | 0.01 to 0.05 | – | CCN(CC)Cc1ccc(/C=C/c2n[nH]c3cc(Sc4ccccc4C(=O)NC4CC4)ccc23)nc1 [Compound I-78] |
| 341 (≈ 654 µM) | > 0.05 | – | CCN(CC)Cc1ccc(/C=C/c2n[nH]c3cc(Sc4ccccc4C(=O)NCC(F)F)ccc23)nc1 [Compound I-99] |
